Results on one compound are retold here after patent US20250073208A1, “IL-6 AND/OR IL-1BETA INHIBITOR” (AGC INC., priority 2022, published 2025).

Data set [1] relates to IL-6 mRNA. Nature of the data set: Quantitative RT-PCR analysis of IL-6 mRNA in whole lung of monocrotaline-induced pulmonary hypertension rats. It is filed as in vivo, rat (male Sprague Dawley). The following applies: 2 mg/kg/day, 3 weeks, FIG. 7 left.
Data set [2] relates to IL-1β mRNA. Nature of the data set: Quantitative RT-PCR analysis of IL-1β mRNA in whole lung of monocrotaline-induced pulmonary hypertension rats. In kind it is in vivo, rat (male Sprague Dawley). The following applies: 2 mg/kg/day, 3 weeks, FIG. 7 right, result in words.
For data set [3], the system named is rats with monocrotaline-induced pulmonary hypertension. In words: Monocrotaline (MCT)-induced pulmonary hypertension rat model: haemodynamics and right ventricular hypertrophy. In kind it is in vivo. The following applies: 3 weeks. As to the method: According to the method described in Abe K, Circ Res, 94: 385-393, 2004, a monocrotaline (MCT)-induced pulmonary hypertension rat model was prepared. Monocrotaline (manufactured by Sigma Ltd. Aldrich) was subcutaneously injected once at a dose of 60 mg/kg to 5- to 6-week-old (body weight 150-200 g) male Sprague Dawley rats (SD rat). The compound of the present invention (KAG-308) was orally administered using a gavage needle at a dose of 1 mg/kg (2 mg/kg/day) twice daily from the day of subcutaneous injection of monocrotaline until the day before measurement (“MCT+KAG-308” in FIG. 1). The same amount of solvent (water for injection) was administered for the same period to the pulmonary hypertension rat model not treated with KAG-308 (“MCT” in FIG. 1). The normal control group, which was not administered monocrotaline and KAG-308, was of the same age (“Normal” in FIG. 1). Three weeks after monocrotaline injection, right ventricular systolic pressure, systemic arterial pressure, heart rate number, and right-to-left ventricular weight ratio (right ventricular hypertrophy) were measured. Under isoflurane inhalation anesthesia, right ventricular systolic pressure was measured by the right heart catheterization method. Using a conductance catheter, systemic arterial pressure and heart rate were measured from the carotid artery. After the measurement, the rats were euthanized with a lethal dose of intravenous pentobarbital, and the hearts were excised. The weight of the left ventricle (LV) including the ventricular septum (Sep) relative to the right ventricle (RV) was measured, and the ratio was used as an index of right ventricular hypertrophy.

For data set [4] the test system is unchanged. Nature of the data set: Pulmonary histopathological analysis in the monocrotaline-induced pulmonary hypertension rat model. It is filed as in vivo, rat (male Sprague Dawley). The following applies: 2 mg/kg/day, 3 weeks. As to the method:
According to the method described in Abe K, Circ Res, 94: 385-393, 2004, a monocrotaline (MCT)-induced pulmonary hypertension rat model was prepared. Monocrotaline (manufactured by Sigma Ltd. Aldrich) was subcutaneously injected once at a dose of 60 mg/kg to 5- to 6-week-old (body weight 150-200 g) male Sprague Dawley rats (SD rat). The compound of the present invention (KAG-308) was orally administered using a gavage needle at a dose of 1 mg/kg (2 mg/kg/day) twice daily from the day of subcutaneous injection of monocrotaline until the day before measurement (“MCT+KAG-308” in FIG. 1). The same amount of solvent (water for injection) was administered for the same period to the pulmonary hypertension rat model not treated with KAG-308 (“MCT” in FIG. 1). The normal control group, which was not administered monocrotaline and KAG-308, was of the same age (“Normal” in FIG. 1). Three weeks after monocrotaline injection, right ventricular systolic pressure, systemic arterial pressure, heart rate number, and right-to-left ventricular weight ratio (right ventricular hypertrophy) were measured. Under isoflurane inhalation anesthesia, right ventricular systolic pressure was measured by the right heart catheterization method. Using a conductance catheter, systemic arterial pressure and heart rate were measured from the carotid artery. After the measurement, the rats were euthanized with a lethal dose of intravenous pentobarbital, and the hearts were excised. The weight of the left ventricle (LV) including the ventricular septum (Sep) relative to the right ventricle (RV) was measured, and the ratio was used as an index of right ventricular hypertrophy. […]
Pulmonary arteries with an outer diameter of 50 to 100 μm were analyzed, and the mean medial wall thickness was measured in a blind manner (mean medial wall thickness=(outer diameter−inner diameter)/outer diameter).
Muscularization of small pulmonary arteries with an outer diameter of 50 μm or less was analyzed by immunostaining with anti-α-SMA (smooth muscular actin) antibody. According to the percentage of smooth muscle in the total circumference of the small pulmonary artery, they were defined as Non muscular (<25%), Partially muscular (25-75%), and Totally muscular (>75%), and at least 70 small pulmonary arteries of each specimen were evaluated in a blinded method.
Macrophages were measured by immunostaining using anti-CD68 antibody. The device used was a laser scanning microscope FV1200 IX83 (OLYMPUS), and observation was performed at a magnification of 400×, and CD68-positive cells were counted in 15 randomly selected fields mainly of small blood vessels.

For the compound `Cc1cccc([C@@H](C)[C@H](O)/C=C/[C@@H]2[C@@H]3[C@H](C[C@H]2O)O/C(=C\CCCc2nnn[nH]2)C3(F)F)c1` [KAG-308, 4-[(Z)-(1S,5R,6R,7R)-6-[(1E,3R,4R)-3-hydroxy-4-(m-tolyl)-1-pentenyl]-7-hydroxy-2-oxa-4,4-difluoro-bicyclo[3.3.0]octan-3-ylidene]-1-(tetrazol-5-yl)butane], the “suppression of the increase in mRNA expression level of IL-6” value in data set [1] is on record as 89%. For the same compound, the “increase in mRNA expression level of IL-6” value in data set [1] (result in words) was “significantly suppressed”. The “increase in mRNA expression level of IL-1β” value in data set [2] was “significantly suppressed”. In addition, the “increase in right ventricular systolic pressure (RVSP)” value in data set [3] (1 mg/kg orally twice daily (2 mg/kg/day), FIG. 2 left) is listed as “significantly suppressed”. Further, the “increase in weight ratio RV/LV+Sep (right ventricular hypertrophy)” value in data set [3] (1 mg/kg orally twice daily (2 mg/kg/day), FIG. 2 right) is “significantly suppressed”. In data set [3] (2 mg/kg/day orally, FIG. 3 left), the “left ventricular systolic pressure” value is “without affecting”. Also, in data set [3] (2 mg/kg/day orally, FIG. 3 right), the heart rate result is “without affecting”. Besides, in data set [4] (lung, anti-CD68 immunostaining, 15 fields at 400×, FIG. 6), the “increase in infiltration of inflammatory CD68-positive macrophages” value is “significantly suppressed”. For the same compound, the “increase in average medial wall thickness of pulmonary artery” value in data set [4] (pulmonary arteries of outer diameter 50 to 100 μm, EVG staining, FIG. 4) was “significantly suppressed”. In data set [4] (small pulmonary arteries of outer diameter 50 μm or less, anti-α-SMA immunostaining, non muscular <25%, FIG. 5), the “non-muscular percentage of small pulmonary arteries” value is “increased”. For the same compound, in data set [4] (small pulmonary arteries of outer diameter 50 μm or less, anti-α-SMA immunostaining, totally muscular >75%, FIG. 5), the “totally muscular percentage of small pulmonary arteries” value is listed as “decreased”.
